One assay concerns the target T1, I-A^k (Mus musculus, UniProt P01910+P06343).
T1 construct: endogenous in cells
Put plainly: Gel filtration binding of 125I-labeled peptide to purified Ia (I-A^k). As to conditions: I-A^k; 125I-labeled peptide, 48 hours at room temperature, no inhibitor. The source says: (§1) The peptide P12-26 was modified by the addition of a tyrosine residue to the N-terminus to serve as an acceptor for the ^125 I.
(§2) Ia-molecules were purifed from Nonidet P-40 (NP-40) lysates of A20 (H2^d) or AKTB-1b (H2^k) cells by affinity chromatography using the following monoclonal antibodies: MK-D6 (I-A^d -specific), 10-3-6 (I-A^k -specific) specific) or 14-4-4 (I-E^d/k -specific) coupled to Sepharose 4B beads (Pharmacia Fine Chemicals, Sweden).
(§3) A gel filtration assay was used for determining the degree of association between immunogenic peptides and Ia. The assay is described in: Buus, S. et al., Proceeding of the National Academy of Sciences, U.S.A. (1986) 83:3968, the teaching of which is incorporated herein by reference. Briefly, 40 μmole of purified Ia in 1 percent NP-40/PBS was mixed with 0.2 μmole of ^125 I-labeled peptide (approximately 200,000 cpm for each experiment) and incubated for 48 hours at room temperature to allow for formation of the Ia-peptide complex. The Ia-peptide complexes were separated from free peptide by gel filtration and the percentage of peptide bound to Ia was calculated as the ratio of the ^125 I-labeled peptide in the void volume to the total ^125 I-labeled peptide recovered.
On the technique in general: In gel filtration, larger molecules generally elute earlier.

A further assay concerns T-cell hybridoma 7B7.3. The experiment in a line: Activation of T-cell hybridoma 7B7.3 measured by IL-2 secretion. The class given is cell-based, Balb/c mouse. The conditions noted are these: for Inhibition of P15-26-dependent 7B7.3 activation: P15-26 as activator, I-A^d context, IL-2 release; for Stimulation of 7B7.3: in the context of I-A^d. The method, then: (§4) T-cell hybridomas were obtained as described in Guillet et al., Science (1985) 235:865-870: and Lechler et al., J. Exp. Med. (1986) 163:678-696 (particularly references cited therein). The procedure for determining inhibition or activation is described in Guillet et al., supra.
(§5) The activation of T-cell hybridomas was measured by their ability to secrete IL-2 (T-cell hybridomas (5×10^4) that were incubated with 5×10^4 antigen-presenting cells in wells of a 96-well tissue Costar plate (no. 3596) in 200 μl RPMI complete medium containing the appropriate antigen concentrations). After 24 hrs of culture, supernatant (50 μl) was removed and then assayed for IL-2 content by its ability to maintain the growth of the IL-2 Dependent CTL-L cells: 1 μCi of ^3 H tritiated thymidine was added per well. Six hours later the cells were harvested by an automatic cell harvester (Skartron Inc., Sterling, Va.) and thymidine incorporation measured by scintillation counting.
The activity of T-cell hybridoma 7B7.3 was measured in the presence of various concentrations of P15-26, either in RPMI 1640 with 10 percent fetal calf serum alone or in the presence of P12-24 20 μM or P12-24 60 μM. A20 B-cell lymphomas (5×10^4 cells/well) were used as antigen presenting cells. After 24 hrs of culture, supernatant (50 μl) was harvested and then assayed for IL-2 concentration by following incorporation of ^3 H thymidine into the IL-2 dependent CTL-L cell line (10^4 cells/well). The indicated values in FIG. 2 represent the arithmetic mean of triplicate samples.
The following work was carried out to examine the competitive ability of peptides derived from Staphylococcus nuclease (Nase), residues 61-80 (P61-80) and from ovalbumin (Ova), residues 324-336 (P324-336) to inhibit P15-26-dependent activation of the hybridoma 7B7.3. Each of these peptides has been shown in their respective cases to be I-A^d -restricted and to be immunodominant for their respective antigens. Finnegan, A. et al. Journal of Experimental Medicine (1986) 164:897-910: Shimonkevitz, R. et al., Journal of Immunology (1984). 5×10^4 TA3 cells were added to each well. Various concentrations of P15-26 were added with either medium (RPMI 1640 with 10 percent fetal calf serum) alone or 30 μM or Ova (P324-36) of 60 μM of Nase ([…]). A20 B-cell lymphoma (5×10^4 cells/well) was used as antigen presenting cells. 7B7.3 T-cell hybridomas (5×10^4) were then added and cultured for 24 hrs. The level of T-cell stimulation was assayed by determining the IL-2 concentration as indicated in Example II. […] The degree of inhibition is […] upon the ratio of activator to inhibitor in each case.

The subject of another assay is T-cell hybridoma 8I. The experiment in a line: Activation of T-cell hybridoma 8I measured by IL-2 secretion. Format: cell-based, A/J strain. The conditions noted are these: for Stimulation of 8I: in the context of I-E^k. Here is the method: as §4, §5
8I (I-E^k -restricted) T-cell hybridomas and TA3 B presenting cells (5×10^4) were cocultured with various concentration of P15-26 and either medium alone or 60 μM of Ova (P324-336) or 60 μM Nase (P61-80) as described above. […] In addition, no other peptides representative of the remainder of the Nase sequence were able to inhibit 7B7.3 activation.

The test system of assay [1] is T-cell hybridoma DO-11.10. The class given is cell-based.
For another assay, the target named is T2, I-A^d (Mus musculus, UniProt P01921+P04228).
T2 construct: endogenous in cells
T2 sequence (P04228 24-256): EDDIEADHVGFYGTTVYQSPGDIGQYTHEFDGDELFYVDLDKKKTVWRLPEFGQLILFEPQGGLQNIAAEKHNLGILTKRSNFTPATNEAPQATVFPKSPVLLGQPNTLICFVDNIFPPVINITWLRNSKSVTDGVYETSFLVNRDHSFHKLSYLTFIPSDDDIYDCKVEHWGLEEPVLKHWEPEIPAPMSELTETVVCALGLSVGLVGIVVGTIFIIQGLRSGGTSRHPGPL
T2 sequence (P01921 28-265): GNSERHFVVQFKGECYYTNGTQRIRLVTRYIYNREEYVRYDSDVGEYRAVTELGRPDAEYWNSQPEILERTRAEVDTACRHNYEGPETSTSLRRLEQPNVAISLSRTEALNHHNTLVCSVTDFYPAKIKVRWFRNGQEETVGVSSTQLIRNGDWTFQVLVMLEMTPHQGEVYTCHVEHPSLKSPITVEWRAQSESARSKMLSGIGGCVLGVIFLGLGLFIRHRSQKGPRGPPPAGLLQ
The experiment in a line: Gel filtration binding of 125I-labeled peptide to purified Ia (I-A^d). As to conditions: I-A^d; 125I-labeled peptide, 48 hours at room temperature, no inhibitor.
Text: as §1, §2, §3

Entries after “also recorded” stand apart in the source; their conditions may differ. Read-outs that look alike come from different tables or passages of the source.

T1 sequence (P01910 24-256): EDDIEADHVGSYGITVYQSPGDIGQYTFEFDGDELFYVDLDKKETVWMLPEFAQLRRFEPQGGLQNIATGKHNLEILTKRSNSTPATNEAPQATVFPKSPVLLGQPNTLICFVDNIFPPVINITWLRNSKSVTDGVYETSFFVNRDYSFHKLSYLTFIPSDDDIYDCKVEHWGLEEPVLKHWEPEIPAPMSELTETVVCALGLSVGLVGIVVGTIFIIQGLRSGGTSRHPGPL
T1 sequence (P06343 28-263): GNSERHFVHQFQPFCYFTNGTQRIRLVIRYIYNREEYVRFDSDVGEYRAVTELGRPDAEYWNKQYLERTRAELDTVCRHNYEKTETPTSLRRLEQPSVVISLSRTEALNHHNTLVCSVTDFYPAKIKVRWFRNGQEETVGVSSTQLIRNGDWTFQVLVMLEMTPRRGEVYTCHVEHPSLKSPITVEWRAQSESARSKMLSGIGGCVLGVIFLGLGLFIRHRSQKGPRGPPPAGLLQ

Consider “Lysozyme (Hen) (P46-61): lysozyme-derived peptide restricted by I-A^k [reference compound]”, for which, in the assay with I-A^k, the “Percent of Peptide Bound” value turned out to be 21.5%.

Turning to “Ova (P324-336): peptide from ovalbumin (Ova), residues 324-336, truncated analog of P323-339 (ISQAVHAAHAEIN; UniProt P01012 324-336, looked up, fragment) [reference compound]”, in the assay on T-cell hybridoma 7B7.3, the “Inhibition of P15-26-dependent 7B7.3 activation” value was “inhibit 7B7.3 activation in a dose-dependent manner”. In the assay with T-cell hybridoma 8I (TA3 presenting cells, P15-26 stimulator, competitor peptide 60 μM), the “Effect on 8I activation” value is given as “without effect”. For the same substance, the “Stimulation of DO-11.10” value in assay [1] is “responds less well”.

Regarding “P12-24: homologous peptide which contains residues 12-24 of cI”, in the assay on T-cell hybridoma 7B7.3, the “Inhibition of P15-26-dependent 7B7.3 activation” value is recorded as “inhibited activation by P15-26 in a dose-dependent manner; also recorded: inhibition of P15-26-dependent7B7.3 activation was observed; also recorded: inhibit activation by P15-26 in a dose dependent manner” and the “Stimulation of 7B7.3” value was “Neither 7B7.3 nor 8I can be stimulated; also recorded: Neither T-cell can be stimulated”. The “Effect on 8I activation (IL-2 response)” value with T-cell hybridoma 8I (I-E^k-restricted hybridoma, P12-24 as competitor) is recorded as “no statistically significant effect; also recorded: had no effect”. Besides, in the assay with T-cell hybridoma 8I, the “Stimulation of 8I” value is on record as “Neither 7B7.3 nor 8I can be stimulated; also recorded: Neither T-cell can be stimulated”.

In the case of “P15-26: peptide which contains amino acid residues 15-26 of cI”, the EC50 in the assay on T-cell hybridoma 7B7.3 (7B7.3 co-cultured with P15-26 and P12-24 at 20 μM, read-out: 50 percent stimulation point of the P15-26 antigen dose response curve) came out at 29.8 ± 2.8 µM; in the assay on T-cell hybridoma 7B7.3 (7B7.3 co-cultured with P15-26 and P12-24 at 60 μM, read-out: 50 percent stimulation point of the P15-26 antigen dose response curve), 70.3 µM; in the assay with T-cell hybridoma 7B7.3 (P15-26 cultured with 7B7.3 alone, A20 antigen presenting cells, 24 hrs, IL-2, read-out: 50% stimulation point of the P15-26 antigen dose response curve), 20.7 ± 1.2 µM. The “Stimulation of 7B7.3” value in the assay on T-cell hybridoma 7B7.3 is on record as “is stimulated; also recorded: can be stimulated”. In addition, in the assay with T-cell hybridoma 8I, the “Stimulation of 8I” value is recorded as “recognizes the same peptide”.

Regarding “P323-339: peptide P323-339 derived from ovalbumin (KISQAVHAAHAEINEAG; UniProt P01012 323-339, looked up, fragment) [reference compound]”, the “Stimulation of DO-11.10” value in assay [1] is “responds to”. The “Percent of Peptide Bound” value in the assay with I-A^d was found to be 10.6%.

(Values after US5019384A, “Immunonodulating compositions and their use” (Massachusetts Institute of Technology, priority 1989, dated 1991).)
